Structures can show the parent of a compound that is named as a salt.
Legend:
[1] = tested on: blood platelet aggregation; assay: Collagen-induced blood platelet aggregation, rabbit plasma (aggregometer method of BORN); assay type: cell-based; conditions: Oryctolagus cuniculus, 1 min, 37° C., 1 minute, maximum aggregation velocity, read-out: EC 50, collagen-induced blood platelet aggregation, rabbit plasma
Experimental: (§1) The maximum aggregation velocity was taken as the test parameter and the effective concentration (EC50) was ascertained from dosage-activity curves. Rabbit plasma was obtained by centrifugation from arterial blood treated with citrate (9 mM). 1 ml. of plasma was treated with 10 μl of test solution and the mixture was incubated at 37° C. for 1 minute, whereupon 8 μl of collagen-fibril suspension or 10 μl. of adenosine diphosphate (ADP) in 10^-4 N sodium chloride solution were added. Plasma incubated with dimethylsulfoxide served as the control. |Collagen- and ADP-induced blood platelet aggregation

[2] = tested on: blood platelet aggregation; assay: ADP-induced blood platelet aggregation, rabbit plasma (aggregometer method of BORN); assay type: cell-based; conditions: Oryctolagus cuniculus, 1 min, 37° C., 1 minute, maximum aggregation velocity, read-out: EC 50, ADP-induced blood platelet aggregation, rabbit plasma
Experimental: as §1

[3] = tested on: blood platelet aggregation; assay: Collagen-induced blood platelet aggregation, human plasma (aggregometer method of BORN); assay type: cell-based; conditions: 10 min, 37° C., maximum aggregation velocity, read-out: EC 50, collagen-induced blood platelet aggregation, human plasma
Experimental: The maximum aggregation velocity was taken as the test parameter and the effective concentration (EC50) was ascertained from dosage-activity curves. Human plasma was obtained by centifugation from venous blood treated with citrate (10.6 mM). 0.18 ml. of plasma was treated with 10 μl of an aqueous suspension of the test substance and the mixture was incubated at 37° C. for 10 minutes, whereupon the aggregation was initiated by the addition of 10 μl of collagen-fibril suspension. |Collagen- and ADP-induced blood platelet aggregation

conscious sheepdogs = assay: Positive inotropic activity and heart frequency after oral administration to conscious sheepdogs; assay type: in vivo
Experimental: The positive inotropic activity was measured after the oral administration of a test substance to conscious sheepdogs. For this purpose, the animals are provided with an implanted pressure-telemetry system, so that the pressure receiver is fixed in the left ventricle. The left ventricular pressure is sent from the animal via the implanted radio transmitter and received via a suitable antenna and receiver system, demodulated and amplified. By differentiation of the ascending side of the left ventricular pressure (LVP), the maximum pressure increase rate (dLVP/dtmax) which represents the contractility parameter is calculated. Simultaneously, the heart frequency is recorded via a cardiotachograph. Under the heading inotropy in Table II, the percentage variation (Δ%) of dLVP/dtmax and the duration of activity in minutes (min) are indicated. Under the heading tachycardia in Table II, the percentage variations of the heart frequency (Δ%) after administration of the test substance and the duration of activity in minutes (min) are indicated.

| EC50 [1] [µM] | EC50 [2] [µM] | EC50 [3] [µM] | Heart frequency Min (duration of activity; tachycardia) (conscious sheepdogs; 10 mg/kg) [min] | Heart frequency Δ % (percentage variation; tachycardia) (conscious sheepdogs; 10 mg/kg) [%] | Heart frequency Min (duration of activity; tachycardia) (conscious sheepdogs; 5 mg/kg) [min] | Heart frequency Δ % (percentage variation; tachycardia) (conscious sheepdogs; 5 mg/kg) [%] | Structure (SMILES) | Inotropy Min (duration of activity) (conscious sheepdogs; 10 mg/kg) [min] | Inotropy Δ % (percentage variation of dLVP/dtmax) (conscious sheepdogs; 10 mg/kg) [%] | Inotropy Min (duration of activity) (conscious sheepdogs; 5 mg/kg) [min] | Inotropy Δ % (percentage variation of dLVP/dtmax) (conscious sheepdogs; 5 mg/kg) [%] |
| --- | --- | --- | --- | --- | --- | --- | --- | --- | --- | --- | --- |
| 0.19 | 2.2 | 2.3 | 480 | 63 |  |  | Cc1cccc2c1CN1C(=N2)NC(=O)[C@H]1C.Cl [D-1,5-dihydro-3,6-dimethylimidazo[2,1-b]-quinazolin-2(3H)-one hydrochloride] | 440 | 82 |  |  |
| 3.1 | 19 | 3.4 |  |  |  |  | Cc1ccc2c(c1)CN1C(=N2)NC(=O)[C@H]1C [D-1,5-dihydro-3,7-dimethylimidazo[2,1-b]-quinazolin-2(3H)-one hydrochloride] |  |  |  |  |
| 3 | 32 | 26 |  |  |  |  | Cc1cccc2c1N=C1NC(=O)[C@@H](C)N1C2 [D-1,5-dihydro-3,9-dimethylimidazo[2,1-b]-quinazolin-2(3H)-one hydrochloride] |  |  |  |  |
|  |  |  |  |  | 115 | 28 | C[C@@H]1C(=O)NC2=Nc3cccc(Cl)c3CN21.Cl [D-6-chloro-1,5-dihydro-3-methyl-imidazo[2,1-b]quinazolin-2(3H)-one hydrochloride] |  |  | 145 | 93 |
| 22 | 77 | 33 |  |  |  |  | Cc1ccc2c(c1)CN1C(=N2)NC(=O)[C@@H]1C [L-1,5-Dihydro-3,7-dimethyl-imidazo[2,1-b]quinazolin-2(3H)-one hydrochloride] |  |  |  |  |
| 0.93 | 11 | 6.2 |  |  |  |  | Cc1cccc2c1CN1C(=N2)NC(=O)[C@@H]1C [L-1,5-dihydro-3,6-dimethylimidazo[2,1-b]-quinazoline-2(3H)-one hydrochloride] |  |  |  |  |
| 18 | 60 | 49 | 100 | 16 |  |  | Cc1cccc2c1N=C1NC(=O)[C@H](C)N1C2 [L-1,5-dihydro-3,9-dimethylimidazo[2,1-b]quinazolin-2(3H)-one] | 120 | 43 |  |  |
|  |  | 14 |  |  |  |  | Cc1cccc2c1CN1C(=N2)NC(=O)[C@@H]1CO [L-1,5-dihydro-3-hydroxymethyl-6-methyl-imidazo[2,1-b]quinazoline-2(3H)-onehydrochloride] |  |  |  |  |

— US4256748A, “Imidazo[2,1-b]quinazolin-2(3H)-ones and pharmaceutical compositions for treatment and prophylaxis of cardiac insufficiency and cardiac failure” (Hoffmann-La Roche Inc., priority 1977, dated 1981)
